Data from article PMC4747398, “Isothiocyanatostilbenes as novel c-Met inhibitors” (Oncotarget, 2015).
pIC50: −log10 of the molar value. Where two headings read alike, the source gives them in different places.

How the values were obtained:
Akt = assay: Downstream Akt phosphorylation, western blot, DU145; format: cell-based; conditions: DU145, serum-free, HGF, ~8 μM compound
Experimental: (§1) Cells were grown to ~70% confluency prior to treatment. Cells were serum-starved in serum-free media for 30 minutes prior to treatment in complete media or serum-free media for the indicated times. Cell lysates were collected in Laemmli (125 mM Tris, 4% SDS, 0.01% bromophenol blue, 30% sucrose) containing 0.5% β-mercaptoethanol and boiled ~8 minutes. Primary antibodies include: phospho-c-Met (Y1234/1235), phospho-Akt (S473), pEGFR (S845), pIGF-IRβ (Y1135/1136) (Cell Signaling Technology; Beverly, MA); α-actin (Sigma-Aldrich), c-Met (C-28) (Life Technologies). Secondary antibodies include: horseradish peroxidase-conjugated anti-rabbit and anti-mouse (GE Healthcare; Pittsburgh, PA). ECL 2 was used for chemiluminescent detection (Thermo Scientific; Rockford, IL). Densitometry was calculated using ImageJ (NIH).

EGFR = target: T1, EGFR (Homo sapiens, UniProt P00533); assay: EGF-induced EGFR activation, western blot, DU145; format: cell-based; conditions: DU145, 100 ng/ml EGF 20 minutes, 4 μM DIDS or 25 μM H2DIDS
T1 construct: 100 ng/ml EGF b; endogenous in cells; host or cells: DU145
Experimental: as §1

IGFR = target: T2, IGFR (Homo sapiens, UniProt P08069); assay: IGF-induced IGFR activation, western blot, DU145; format: cell-based; conditions: DU145, 100 ng/ml IGF 20 minutes, 4 μM DIDS or 25 μM H2DIDS
T2 construct: endogenous in cells; host or cells: DU145
Experimental: as §1

DU145 cells [1] = assay: HGF-induced cell scattering assay; format: cell-based; conditions: DU145, 33 ng/ml HGF overnight, 4 μM DIDS or 25 μM H2DIDS
Experimental: DU145 cells were grown to ~50% confluency. Cells were treated overnight with 4 μM DIDS or 25 μM H2DIDS in the presence or absence of 33 ng/ml HGF or 100 ng/ml EGF. Cells were fixed with 4% paraformaldehyde and stained with Oregon Green 488 phalloidin (Invitrogen; Carlsbad, CA). Images were acquired on an Eclipse TE300 inverted microscope (Nikon; Tokyo, Japan) with NIS Elements version 4.13.04 software. Presented images were taken using a 10X objective.

DU145 cells [2] = assay: HGF-induced wound healing; format: cell-based; conditions: DU145, 33 ng/ml HGF, 4 μM DIDS or 25 μM H2DIDS
Experimental: (§2) DU145 cells were grown to ~100% confluency prior to wounding with the IncuCyte™ WoundMaker™ (Essen Bioscience; Ann Arbor, MI) and washed once with complete media. For invasion, cells were covered with Matrigel diluted 1:5 in serum-free RPMI following wounding. Cells were treated with 4 μM DIDS or 25 μM H2DIDS with or without 33 ng/ml HGF or 100 ng/ml EGF for up to 4 days. Images were taken every 4 hours with the IncuCyte™ ZOOM imaging system (Essen Bioscience). Quadruplicate replicates were used in each experiment. Data are presented as percent wound density ± standard error of the mean (S.E.M.).

DU145 cells [3] = assay: EGF-induced wound healing; format: cell-based; conditions: DU145, 100 ng/ml EGF, 4 μM DIDS or 25 μM H2DIDS
Experimental: as §2

DU145 cells [4] = assay: HGF-induced invasion through Matrigel; format: cell-based; conditions: DU145, 33 ng/ml HGF, Matrigel diluted 1:5
Experimental: as §2

[5] = 2D proliferation (Cell Titer Blue); format: cell-based; conditions: up to 72 hours; for effect on serum-free proliferation (2D): serum-free RPMI
Experimental: Cells were seeded to ~30% confluency prior to treatment with DIDS or H2DIDS at 0.5 μM, 2 μM, 8 μM, 32 μM, or 64 μM for 24 hours, 48 hours, or 72 hours in complete or serum-free RPMI. A T0 timepoint was also measured. For each timepoint, cells were exposed to Cell Titer Blue reagent (Promega) for 1 hour at 37°C 5% CO2. Experiments were performed with quadruplicate replicates. Fluorescence was measured using a BioTek Synergy 4 plate reader with Gen5 software.

DU145 spheroids = assay: 3D spheroid proliferation in Matrigel; format: cell-based; conditions: 5 μM compound, 33 ng/ml HGF, 72 hours
Experimental: Prior to seeding, cells were incubated with 2.5 ng/μl CellTracker Red (Life Technologies) in complete DMEM lacking Phenol Red for 5 minutes at room temperature then centrifuged at 1000 RPM for 5 minutes. Dyed cells were resuspended in complete DMEM lacking Phenol Red and containing 5% Matrigel before adding 5 μM, 10 μM, 20 μM, or 40 μM DIDS or H2DIDS +/− HGF. The mixture of cells, treatments, and Matrigel in complete media was seeded at 2000 cells/well in a 96 well plate. The plate was centrifuged at 1000 RPM for 3 minutes to collect the cells into the bottom of the plate. Spheroid growth was imaged for up to 80 hours and analyzed for average red object area using the IncuCyte™ ZOOM software. […] Images were captured by the IncuCyte™ ZOOM imaging system and representative 10X images are shown.

wild-type c-Met = wild-type c-Met (Homo sapiens, UniProt P08581); assay: Z'-LYTE kinase phosphorylation inhibition assay, wild-type c-Met; format: biochemical
Experimental: (§3) Z'-LYTE™ Kinase Assay-Tyr6 Peptide kit (Invitrogen) was used to assess the ability of tested compounds to inhibit c-Met phosphorylation. Briefly, 20 μl/well reactions were set up in 96-well plates containing kinase buffer, 200 μM ATP, 4 μM Z-LYTE™ Tyr6 Peptide substrate, 2500 ng/ml c-Met kinase and DIDS or H2DIDS at various concentrations. After 1 hour incubation at room temperature, 10 μl development solution containing site-specific protease was added to each well. Incubation was continued for 1 hour. The reaction was then stopped, and the fluorescent signal ratio of 445 nm (coumarin)/520 nm (fluorescein) was determined on a plate reader (BioTek FLx800™), which reflects the peptide substrate cleavage status and/or the kinase inhibitory activity in the reaction. […] The IC50 value for each compound was calculated by nonlinear regression of log concentration versus % c-Met phosphorylation ± S.E.M., implemented in GraphPad Prism version 5.0 (GraphPad Software, CA, USA).

c-Met M1250T (M1268T) = c-Met M1250T (M1268T) (Homo sapiens, UniProt P08581, M1250T); assay: Z'-LYTE kinase phosphorylation inhibition assay, mutant c-Met; format: biochemical; conditions: 200 μM ATP, cell-free
Experimental: as §3

[6] = Tolerability in xenograft mice; format: in vivo
Experimental: (§4) All animal experiments were approved by the Institutional Animal Care and Use Committee, University of Louisiana at Monroe, and were handled in strict accordance with good animal practice as defined by the NIH guidelines. Athymic nude mice (Foxn1^nu/Foxn1^+, 4–5 weeks, female) were purchased from Harlan (Indianapolis, IN). The mice had free access to standard pellet food and water. The animals were acclimated to animal house facility conditions at a temperature of 18–25°C, with a relative humidity of 55 to 65% and a 12 h light/dark cycle, for one week prior to the experiments. MDA-MB-231/GFP human breast cancer cells were cultured and resuspended in serum-free DMEM medium (20 μl). After anesthesia, cell suspensions (1 × 10^6 cells/20 μl) were inoculated subcutaneously into the second mammary gland fat pad just beneath the nipple of each animal to generate orthotopic breast tumors. […] The mice were monitored by measuring tumor volume, body weight, and clinical observation. Tumor volume (V) was calculated by V = L/2 × W^2, where L was the length and W was the width of tumors. The results are presented as average ± S.E.M. Differences among various treatment groups were determined by the analysis of variance (ANOVA) followed by Dunnett's test using PASW statistics version 18. […]

[7] = tested on: MDA-MB-231/GFP human breast cancer cells; assay: Orthotopic breast tumor xenograft; format: in vivo; conditions: mice, 5 mg/kg then 10 mg/kg i.p.
Experimental: as §4

[8] = tested on: protein translocation across the ER membrane; design: method as in PMID 8396042; conditions: cited from earlier work
[9] = tested on: matrix metalloproteinase release; design: method as in PMID 22937143; conditions: cited from earlier work
c-Met [10] = target: T3, c-Met (Homo sapiens, UniProt P08581); assay: Constitutive pMet in c-Met amplified H1993 cells, western blot; format: cell-based; design: endogenous in cells; conditions: 5 μM compound, no HGF
Experimental: as §1

c-Met [11] = target: T3, c-Met; assay: HGF-induced c-Met phosphorylation, western blot, DU145; format: cell-based; design: endogenous in cells; host or cells: DU145; conditions: for effective concentration for c-Met inhibition in 10% FBS versus serum-free: DU145, 33 ng/ml HGF 20 minutes, 10% FBS RPMI; for reduction of c-Met activation: 8 μM compound, western blot densitometry
Experimental: as §1

c-Met [12] = target: T3, c-Met; assay: Washout and reversal of c-Met phosphorylation in DU145, western blot; format: cell-based; design: endogenous in cells; host or cells: DU145; conditions: wash
Experimental: as §1

[13] = DU145, serum-free, 33 ng/ml HGF 20 minutes

T3 sequence (P08581 25-1390): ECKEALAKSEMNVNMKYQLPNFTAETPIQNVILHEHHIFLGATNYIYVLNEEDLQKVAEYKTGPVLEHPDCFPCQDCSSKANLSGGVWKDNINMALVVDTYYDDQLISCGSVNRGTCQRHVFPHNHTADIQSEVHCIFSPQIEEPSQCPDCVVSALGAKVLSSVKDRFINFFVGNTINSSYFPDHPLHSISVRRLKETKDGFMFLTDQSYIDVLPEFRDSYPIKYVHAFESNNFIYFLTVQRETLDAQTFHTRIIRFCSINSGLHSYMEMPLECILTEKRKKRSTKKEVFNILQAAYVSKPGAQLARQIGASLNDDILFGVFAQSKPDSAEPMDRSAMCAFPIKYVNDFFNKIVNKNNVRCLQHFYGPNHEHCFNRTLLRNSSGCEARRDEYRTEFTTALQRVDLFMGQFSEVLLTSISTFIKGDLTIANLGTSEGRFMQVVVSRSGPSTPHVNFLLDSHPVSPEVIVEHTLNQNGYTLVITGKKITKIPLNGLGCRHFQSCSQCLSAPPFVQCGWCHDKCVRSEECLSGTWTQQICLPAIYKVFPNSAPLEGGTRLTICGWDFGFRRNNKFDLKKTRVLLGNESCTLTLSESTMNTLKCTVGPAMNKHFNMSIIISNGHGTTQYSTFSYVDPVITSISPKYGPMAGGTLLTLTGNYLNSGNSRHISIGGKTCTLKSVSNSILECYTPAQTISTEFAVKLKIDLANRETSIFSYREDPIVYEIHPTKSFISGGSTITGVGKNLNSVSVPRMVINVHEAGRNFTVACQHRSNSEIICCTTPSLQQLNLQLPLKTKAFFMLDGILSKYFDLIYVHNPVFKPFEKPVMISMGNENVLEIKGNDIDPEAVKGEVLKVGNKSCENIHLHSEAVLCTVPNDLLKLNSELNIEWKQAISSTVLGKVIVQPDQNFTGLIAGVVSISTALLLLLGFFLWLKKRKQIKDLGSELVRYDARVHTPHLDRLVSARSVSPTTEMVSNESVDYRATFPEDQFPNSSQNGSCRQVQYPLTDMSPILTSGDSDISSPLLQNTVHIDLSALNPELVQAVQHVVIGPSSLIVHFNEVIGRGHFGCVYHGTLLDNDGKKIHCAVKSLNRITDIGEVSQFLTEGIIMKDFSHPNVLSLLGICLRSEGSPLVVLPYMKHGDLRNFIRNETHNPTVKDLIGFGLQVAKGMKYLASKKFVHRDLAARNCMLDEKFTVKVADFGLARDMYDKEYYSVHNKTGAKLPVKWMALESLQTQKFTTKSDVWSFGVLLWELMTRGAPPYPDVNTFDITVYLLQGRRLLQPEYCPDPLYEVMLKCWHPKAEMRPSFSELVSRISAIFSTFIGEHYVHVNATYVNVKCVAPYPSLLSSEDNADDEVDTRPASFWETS
Sequence of wild-type c-Met (P08581 25-1390): as above
T2 sequence (P08069 31-1367): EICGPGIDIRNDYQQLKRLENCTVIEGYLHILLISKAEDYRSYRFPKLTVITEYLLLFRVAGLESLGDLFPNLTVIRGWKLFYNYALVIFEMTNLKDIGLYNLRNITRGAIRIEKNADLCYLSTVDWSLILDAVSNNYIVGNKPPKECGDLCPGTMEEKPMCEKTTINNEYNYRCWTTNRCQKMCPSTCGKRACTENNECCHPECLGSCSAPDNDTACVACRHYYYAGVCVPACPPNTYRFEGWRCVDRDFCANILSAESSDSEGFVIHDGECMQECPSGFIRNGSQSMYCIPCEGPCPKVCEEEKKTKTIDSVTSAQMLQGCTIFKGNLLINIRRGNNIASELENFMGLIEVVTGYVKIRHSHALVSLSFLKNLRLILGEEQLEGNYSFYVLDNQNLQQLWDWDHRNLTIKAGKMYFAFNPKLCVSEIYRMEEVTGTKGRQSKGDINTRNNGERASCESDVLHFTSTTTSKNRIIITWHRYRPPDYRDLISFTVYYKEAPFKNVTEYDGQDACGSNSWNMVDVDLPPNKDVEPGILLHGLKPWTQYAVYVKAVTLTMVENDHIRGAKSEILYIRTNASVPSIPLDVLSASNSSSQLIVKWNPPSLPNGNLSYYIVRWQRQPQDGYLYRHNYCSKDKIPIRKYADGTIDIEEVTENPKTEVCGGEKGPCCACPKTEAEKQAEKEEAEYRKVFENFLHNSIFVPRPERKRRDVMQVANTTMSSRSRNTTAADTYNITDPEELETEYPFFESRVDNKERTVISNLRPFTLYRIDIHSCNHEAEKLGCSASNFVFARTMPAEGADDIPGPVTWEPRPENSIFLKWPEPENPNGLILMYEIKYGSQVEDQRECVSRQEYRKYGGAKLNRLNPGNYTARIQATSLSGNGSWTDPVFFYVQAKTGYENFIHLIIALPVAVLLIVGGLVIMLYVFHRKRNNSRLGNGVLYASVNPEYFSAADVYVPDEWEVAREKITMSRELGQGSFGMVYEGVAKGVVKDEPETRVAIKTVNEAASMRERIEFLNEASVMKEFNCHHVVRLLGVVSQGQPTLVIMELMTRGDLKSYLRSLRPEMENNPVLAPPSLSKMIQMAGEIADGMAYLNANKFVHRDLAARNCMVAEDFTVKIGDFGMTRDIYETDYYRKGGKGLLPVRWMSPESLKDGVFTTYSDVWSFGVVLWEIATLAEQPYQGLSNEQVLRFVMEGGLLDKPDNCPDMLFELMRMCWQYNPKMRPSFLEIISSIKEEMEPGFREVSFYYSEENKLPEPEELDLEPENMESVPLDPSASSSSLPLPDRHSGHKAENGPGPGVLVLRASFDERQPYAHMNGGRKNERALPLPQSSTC
Sequence of c-Met M1250T (M1268T) (P08581 956-1390 M1250T limits assumed): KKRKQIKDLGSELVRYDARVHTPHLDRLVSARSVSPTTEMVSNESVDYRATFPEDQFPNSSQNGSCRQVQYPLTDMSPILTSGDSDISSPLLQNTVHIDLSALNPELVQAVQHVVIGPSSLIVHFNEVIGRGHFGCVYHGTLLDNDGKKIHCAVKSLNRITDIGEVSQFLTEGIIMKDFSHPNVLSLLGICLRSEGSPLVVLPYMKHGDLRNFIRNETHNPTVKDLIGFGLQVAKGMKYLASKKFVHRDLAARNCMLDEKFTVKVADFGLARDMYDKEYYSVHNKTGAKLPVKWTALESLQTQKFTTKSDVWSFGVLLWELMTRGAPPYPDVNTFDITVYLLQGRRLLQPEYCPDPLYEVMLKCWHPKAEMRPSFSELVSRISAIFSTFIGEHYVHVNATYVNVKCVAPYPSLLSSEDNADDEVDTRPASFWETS

Structure (SMILES) | effect on EGFR activation (EGFR) | effect on IGFR activation (IGFR) | effect on HGF-induced cell scattering (DU145 cells [1]) | effect on HGF-induced wound healing (DU145 cells [2]) | effect on EGF-mediated wound healing (DU145 cells [3]) | effect on HGF-induced invasion (DU145 cells [4]) | effect on proliferation in complete media (2D) [5] | effect on serum-free proliferation (2D) [5] | decrease of HGF-induced DU145 spheroid growth (DU145 spheroids) | effect on pMet levels in H1993 cells (c-Met [10]) | effective concentration for c-Met inhibition in 10% FBS versus serum-free (c-Met [11]) | reduction of c-Met activation (c-Met [11]; [13]) | other results
O=S(=O)(O)c1cc(N=C=S)ccc1C=Cc1ccc(N=C=S)cc1S(=O)(=O)O [DIDS, 4,4′-Diisothiocyanatostilbene-2,2′-disulfonic acid] | do not significantly reduce | do not significantly reduce | able to reduce HGF-induced | significantly reduced | minimal effects | reduce HGF-induced wound healing and invasion in a dose-dependent manner | minimal effects | minimal effects | ~ 60% | much less significant effects | slightly higher effective concentrations | ~ 90% | reduction of downstream Akt (Akt): ~ 90%; pIC50 (wild-type c-Met; 200 μM ATP, cell-free, read-out: IC50, wild-type c-Met): 6.52; pIC50 (c-Met M1250T (M1268T)): 6.43; signs of toxicity ([6]; 5 mg/kg intraperitoneally, ~2 weeks): No obvious signs of toxicity; body weight versus DMSO control ([6]; 5 mg/kg then 10 mg/kg i.p., 3X/week): no change in body weight; tumor size (caliper) ([7]; 3X/week): began to reduce tumor size towards the end of the experiment; tumor weight at necropsy ([7]; versus DMSO control): Differences in overall tumor weight were evident; concentration inhibiting protein translocation across the ER membrane [8]: ≥ 400 µM; concentration inhibiting matrix metalloproteinase release [9]: ≥ 400 µM; effect on pMet when given post HGF treatment (c-Met [12]; DU145, 33 ng/ml HGF 20 minutes, 4 μM for 20 or 60 minutes): reduced pMet levels; reversibility of c-Met inhibition after washout (c-Met [12]; DU145, 4 μM 20 minutes, then 33 ng/ml HGF 20 minutes): does not irreversibly bind c-Met
O=[N+]([O-])c1ccc(C=Cc2ccc([N+](=O)[O-])cc2S(=O)(=O)O)c(S(=O)(=O)O)c1 [DNDS, 4,4′-dinitrostilbene-2,2′-disulfonic acid] | – | – | – | – | – | – | – | – | – | – | – | – | inhibition at 2000 µM (c-Met [11]; DU-145, read-out: inhibition of c-Met): ~90%
O=S(=O)(O)c1cc(N=C=S)ccc1CCc1ccc(N=C=S)cc1S(=O)(=O)O [H2DIDS, 4,4′-Diisothiocyanatodihydrostilbene-2,2′-disulfonic acid] | do not significantly reduce | do not significantly reduce | able to reduce HGF-induced | significantly reduced | minimal effects | reduce HGF-induced wound healing and invasion in a dose-dependent manner | minimal effects | minimal effects | ~ 60% | much less significant effects | slightly higher effective concentrations | ~ 90% | pIC50 (wild-type c-Met): 5.44
CC(=O)Nc1ccc(C=Cc2ccc(N=C=S)cc2S(=O)(=O)O)c(S(=O)(=O)O)c1 [SITS, 4-acetamido-4′-isothiocyanatostilbene-2,2′-disulfonic acid] | – | – | – | – | – | – | – | – | – | – | – | – | inhibition at 250 µM (c-Met [11]; DU-145, DU145, serum-free, 33 ng/ml HGF 20 minutes, 250 μM compound): ~90%
Cc1[nH]c(/C=C2\C(=O)Nc3ccc(S(=O)(=O)N(C)c4cccc(Cl)c4)cc32)c(C)c1C(=O)N1CCN(C)CC1 [SU11274] | – | – | – | – | – | – | – | – | – | ameliorated pMet levels | – | – | reduction of c-Met phosphorylation (wild-type c-Met; 500 nM compound, cell-free kinase assay): ~ 70%
